From patent US12428401B2, “Salt of an aminopyridine derivative compound, a crystalline form thereof, and a process for preparing the same” (Yuhan Corporation, priority 2017, dated 2025)
Values joined by “and” are separate entries in the source; they are usually repeats but may differ in a detail not shown here. Equal values may be shown once. Where a name gives a salt, the structure may show the parent alone. Read-outs that look alike come from different tables or passages of the source.

Legend:
[1] = Pharmacokinetic comparison test in normal rats; assay type: in vivo, rats (SD rats)
Excerpt: (§1) Specifically, the maximum plasma concentration (Cmax) and the area under the plasma concentration curve (AUClast) in the normal rats and the rats treated with esomeprazole were compared to evaluate the absorption of the drugs in the actual animals.
(§2) In order to compare the pharmacokinetic parameters, 8-week old male rats (SD rats) with a body weight of about 250 g were used as test animals.

[2] = Pharmacokinetic comparison test in rats treated with esomeprazole; assay type: in vivo, rats (SD rats)
Excerpt: as §1, §2
A comparison of the pharmacokinetic parameters (i.e., the maximum plasma concentration and the area under the plasma concentration curve) calculated therefrom are shown in Table 7 and FIGS. 12 and 13.

[3] = Pharmacokinetic comparison test in beagle dogs; assay type: in vivo
Excerpt: A comparison of the pharmacokinetic parameters (i.e., the maximum plasma concentration and the area under the plasma concentration curve) calculated therefrom are shown in Table 8 and FIG. 14.

[4] = accelerated conditions; for Content / Purity: HPLC; for Content Change / Purity Change / Water content Change: start to 6 months
Method: The five compounds were tested for stability under stress conditions and accelerated conditions.

[5] = Stability test under stress conditions (PXRD, DSC, appearance, HPLC); conditions: for DSC onset / Water content / Content / Purity / Content Change / Purity Change / Water content Change / Appearance (color): stress conditions; for Content / Purity: HPLC; for Content Change / Purity Change / Water content Change: start to 4 weeks
[6] = Rats treated with esomeprazole (i.v. 5 mg/2 mL/kg for 3 days), oral 30 mg/5 ml/kg
[7] = esomeprazole-treated vs normal rats, listed as Comparative Example 1

## C=CC(=O)Nc1cc(Nc2nccc(-n3cc(CN(C)C)c(-c4ccccc4)n3)n2)c(OC)cc1N1CCOCC1 [C. Ex. 1, N-(5-(4-(4-((dimethylamino)methyl)-3-phenyl-1H-pyrazol-1-yl)pyrimidine-2-ylamino)-4-methoxy-2-morpholinophenyl)acrylamide]
[1]; normal rats
  Area under the plasma concentration curve lower than that of the mesylate salt form (Example 1): 10.4%
  Maximum plasma concentration lower than that of the mesylate salt form (Example 1): 11.0%
[2]; [6]
  Area under the plasma concentration curve (AUClast): 2636.7 ng·h/mL
  Maximum plasma concentration (Cmax): 223.0 ng/mL
[2]; [7]
  Area under the plasma concentration curve reduced in the esomeprazole-treated rats as compared with the normal rats: 63.8%
  Maximum plasma concentration reduced in the esomeprazole-treated rats as compared with the normal rats: 69.3%
[2]; rats treated with esomeprazole
  Area under the plasma concentration curve lower than that of the mesylate salt form (Example 1): 49.4%
  Maximum plasma concentration lower than that of the mesylate salt form (Example 1): 47.8%
[3]
  Area under the plasma concentration curve lower than that of the mesylate salt form (Example 1): 50.4%
  Maximum plasma concentration lower than that of the mesylate salt form (Example 1): 40.1%

## C=CC(=O)Nc1cc(Nc2nccc(-n3cc(CN(C)C)c(-c4ccccc4)n3)n2)c(OC)cc1N1CCOCC1.O=C(O)CC(O)(CC(=O)O)C(=O)O [C. Ex. 3, Citrate Salt of N-(5-(4-(4-((dimethylamino)methyl)-3-phenyl-1H-pyrazol-1-yl)pyrimidine-2-ylamino)-4-methoxy-2-morpholinophenyl)acrylamide]
[4]; 1 mo
  Water content: 0.83%
  Content: 100.5%
  Purity: 98.9%
[4]; 3 mos
  DSC onset: 180 °C
  Water content: 3.05%
  Content: 101.0%
  Purity: 98.9%
[4]; 6 mos
  DSC onset: 183 °C
  Water content: 3.50%
  Content: 98.7%
  Purity: 97.7%
[4]; Start
  Content: 100.0%
  Purity: 99.2%
  Water content: 0.65%
[4]
  Content Change: −1.3%
  Purity Change: −1.5%
  Water content Change: +2.85%
[5]; 2 weeks
  DSC onset: 182 °C
  Water content: 0.62%
  Content: 98.9%
  Purity: 98.8%
[5]; 4 weeks
  DSC onset: 181 °C
  Water content: 1.47%
  Content: 98.6%
  Purity: 98.7%
[5]; Start
  Content: 100.0%
  Purity: 99.2%
  DSC onset: 182 °C
  Water content: 0.65%
[5]
  Content Change: −1.4%
  Purity Change: −0.5%
  Water content Change: +0.82%

## C=CC(=O)Nc1cc(Nc2nccc(-n3cc(CN(C)C)c(-c4ccccc4)n3)n2)c(OC)cc1N1CCOCC1.Cl [C. Ex. 2, Hydrochloride Salt of N-(5-(4-(4-((dimethylamino)methyl)-3-phenyl-1H-pyrazol-1-yl)pyrimidine-2-ylamino)-4-methoxy-2-morpholinophenyl)acrylamide]
[4]; 1 mo
  Appearance (color): Y
  DSC onset: 272 °C
  Water content: 0.98%
  Content: 97.0%
  Purity: 99.0%
[4]; 3 mos
  Appearance (color): Y
  DSC onset: 271 °C
  Water content: 1.47%
  Content: 98.3%
  Purity: 98.9%
[4]; 6 mos
  DSC onset: 271 °C
  Water content: 1.28%
  Content: 97.6%
  Purity: 98.8%
[4]; Start
  Purity: 99.0%
  Appearance (color): Y
  Water content: 0.86%
[4]
  Content Change: +0.2%
  Purity Change: −0.2%
  Water content Change: +0.42%
[5]; 2 weeks
  DSC onset: 269 °C
  Water content: 1.23%
  Content: 96.2%
  Purity: 99.1%
[5]; 4 weeks
  DSC onset: 269 °C
  Water content: 1.44%
  Content: 95.2%
  Purity: 99.1%
[5]; Start
  Content: 97.4%
  Purity: 99.0%
  Appearance (color): Yellow
  DSC onset: 267 °C
  Water content: 0.86%
[5]
  Content Change: −2.2%
  Purity Change: +0.1%
  Water content Change: +0.58%

## C=CC(=O)Nc1cc(Nc2nccc(-n3cc(CN(C)C)c(-c4ccccc4)n3)n2)c(OC)cc1N1CCOCC1 [Ex. 1, mesylate salt of N-(5-(4-(4-((dimethylamino)methyl)-3-phenyl-1H-pyrazol-1-yl)pyrimidine-2-ylamino)-4-methoxy-2-morpholinophenyl)acrylamide]
[1]; male, SD, rat, plasma, 30 mg/kg, Normal rats, oral 30 mg/5 ml/kg in 0.5% methylcellulose, read-out: Area under the plasma concentration curve (AUClast)
  AUC(0-t): 8140 ng·h/mL
[1]; male, SD, rat, plasma, 30 mg/kg, Normal rats, oral 30 mg/5 ml/kg in 0.5% methylcellulose, read-out: Maximum plasma concentration (Cmax)
  Cmax: 816 ng/mL
[2]; male, SD, rat, plasma, po, 30 mg/kg, Rats treated with esomeprazole (i.v. 5 mg/2 mL/kg for 3 days), oral 30 mg/5 ml/kg, read-out: Area under the plasma concentration curve (AUClast)
  AUC(0-t): 5210 ng·h/mL
[2]; male, SD, rat, plasma, po, 30 mg/kg, Rats treated with esomeprazole (i.v. 5 mg/2 mL/kg for 3 days), oral 30 mg/5 ml/kg, read-out: Maximum plasma concentration (Cmax)
  Cmax: 428 ng/mL
[3]; male, dog, plasma, 5 mg/kg, oral 5 mg/2 mL/kg in 0.5% methylcellulose, read-out: Area under the plasma concentration curve (AUClast)
  AUC(0-t): 812 ng·h/mL
[3]; male, dog, plasma, 5 mg/kg, oral 5 mg/2 mL/kg in 0.5% methylcellulose, read-out: Maximum plasma concentration (Cmax)
  Cmax: 135 ng/mL
[4]; 1 mo
  DSC onset: 214 °C
  Water content: 2.73%
  Content: 98.9%
  Purity: 99.3%
[4]; 3 mos
  DSC onset: 214 °C
  Water content: 3.19%
  Content: 98.9%
  Purity: 99.3%
[4]; 6 mos
  DSC onset: 214 °C
  Water content: 3.01%
  Content: 99.1%
  Purity: 99.3%
[4]; Start
  Content: 98.8%
  Purity: 99.2%
  DSC onset: 214 °C
  Water content: 2.48%
[4]
  Content Change: +0.3%
  Purity Change: +0.1%
  Water content Change: +0.53%
[5]; stress and accelerated conditions together, purity, water content, PXRD pattern, appearance
  Stability (overall conclusion of the stability test): excellent in stability
[5]; 2 weeks
  Appearance (color): White
  DSC onset: 214 °C
  Water content: 2.71%
  Content: 97.7%
  Purity: 99.3%
[5]; 4 weeks
  Appearance (color): White
  DSC onset: 214 °C
  Water content: 2.70%
  Content: 98.9%
  Purity: 99.3%
[5]; Start
  Content: 98.8%
  Purity: 99.2%
  Appearance (color): White
  DSC onset: 214 °C
  Water content: 2.48%
[5]
  Content Change: +0.1%
  Purity Change: +0.1%
  Water content Change: +0.22%

## C=CC(=O)Nc1cc(Nc2nccc(-n3cc(CN(C)C)c(-c4ccccc4)n3)n2)c(OC)cc1N1CCOCC1.CCS(=O)(=O)O [C. Ex. 4, Esilate Salt of N-(5-(4-(4-((dimethylamino)methyl)-3-phenyl-1H-pyrazol-1-yl)pyrimidine-2-ylamino)-4-methoxy-2-morpholinophenyl)acrylamide]
[4]; 1 mo
  DSC onset: 222 °C
  Water content: 2.48%
  Content: 96.1%
  Purity: 99.1%
[4]; 3 mos
  Water content: 2.98%
  Content: 95.1%
  Purity: 99.0%
[4]; 6 mos
  DSC onset: 218 °C
  Water content: 3.17%
  Content: 91.4%
  Purity: 98.4%
[4]; Start
  Purity: 99.5%
  Appearance (color): Y
[4]
  Content Change: −5.1%
  Purity Change: −1.1%
  Water content Change: +2.02%
[5]; 2 weeks
  DSC onset: 222, ° C. and 227 °C
  Water content: 1.37%
  Content: 94.7%
  Purity: 99.0%
[5]; 4 weeks
  Appearance (color): Violet
  DSC onset: 172, ° C. and 193, ° C. and 219 °C
  Water content: 3.81%
  Content: 89.5%
  Purity: 98.9%
[5]; Start
  Content: 96.5%
  Appearance (color): Yellow
  DSC onset: 223 °C
  Water content: 1.15%
[5]
  Content Change: −7%
  Purity Change: −0.6%
  Water content Change: +2.03%
